# Results published in EPA's ToxRefDB 2.
# Experiments:
# rat [1] = conditions: Multigenerational reproductive toxicity study, Sprague-Dawley, Oral, Feed, dose end: 2 generation
# rat [2] = conditions: Prenatal developmental toxicity study, sprague dawley, Oral, Gavage/Intubation, dose end: 18 GD
# rat [3] = conditions: Chronic toxicity, Oral, Diet, dose end: 53 week, group: systemic
# rat [4] = conditions: Combined chronic toxicity/carcinogenicity, sprague dawley, Oral, Feed, dose end: 105 week, group: systemic
# dog [5] = conditions: Chronic toxicity; beagle; Oral; Gavage/Intubation; dose end: 53 week; group: systemic; systemic / in life observation / clinical signs / stiffness + systemic / in life observation / clinical signs / tremors + systemic / …
# rat [6] = conditions: Subchronic oral toxicity in rodents, sprague dawley, Feed, dose end: 13 week, group: systemic
# dog [7] = conditions: Subchronic oral toxicity in nonrodent, beagle, Gavage/Intubation, dose end: 14 week, group: systemic
# rat [8] = conditions: Combined chronic toxicity/carcinogenicity, sprague dawley, Oral, Feed, dose end: 24 month, group: systemic
# dog [9] = conditions: Chronic toxicity; beagle; Oral; Feed; dose end: 52 week; group: systemic; systemic / pathology microscopic / eye / [other] + systemic / pathology microscopic / eye / cataract + systemic / pathology microscopic / …
# dog [10] = conditions: Subchronic oral toxicity in nonrodent, beagle, Feed, dose end: 91 day, group: systemic
# rat [11] = conditions: Subchronic oral toxicity in rodents, other, Feed, dose end: 90 day, group: systemic
# rat [12] = conditions: Multigenerational reproductive toxicity study, other, Oral, Feed, dose end: 2 generation
# mouse [13] = conditions: Subchronic oral toxicity in rodents, cd1, Feed, dose end: 13 week, group: systemic
# mouse [14] = conditions: Carcinogenicity, cd1, Oral, Feed, dose end: 18 month, group: systemic
# rat [15] = conditions: Prenatal developmental toxicity study, wistar, Oral, Gavage/Intubation, dose end: 19 GD
# rat [16] = conditions: Subchronic oral toxicity in rodents, wistar, Feed, dose end: 28 day, group: systemic
# rat [17] = conditions: Subchronic oral toxicity in rodents, wistar, Feed, dose end: 90 day, group: systemic
# dog [18] = conditions: Subchronic oral toxicity in nonrodent, beagle, Capsule, dose end: 90 day, group: systemic
# [19] = group: maternal, systemic / in life observation / body weight / body weight gain
# [20] = group: offspring, developmental / developmental malformation / limb / [other] + systemic / in life observation / clinical signs / tremors
# [21] = group: parental, systemic / pathology microscopic / brain / degeneration + systemic / pathology microscopic / spinal cord / degeneration + systemic / in life…
# [22] = group: reproductive, reproductive / reproductive performance / fertility / fertility
# [23] = group: developmental, developmental / developmental malformation / bone / full supernumerary + developmental / developmental malformation / bone / incomplete …
# [24] = group: maternal, systemic / in life observation / body weight / body weight gain + systemic / in life observation / clinical signs / convulsions + systemic…
# [25] = systemic / in life observation / clinical signs / locomotion + systemic / in life observation / clinical signs / motor activity + systemic…
# [26] = systemic / in life observation / body weight / body weight + systemic / in life observation / body weight / body weight gain + systemic / in…
# [27] = systemic / in life observation / body weight / body weight + systemic / in life observation / clinical signs / emaciation + systemic / in …
# [28] = systemic / pathology microscopic / brain / degeneration + systemic / pathology microscopic / skeletal muscle / atrophy + systemic / in life …
# [29] = systemic / pathology microscopic / brain / degeneration + systemic / pathology microscopic / skeletal muscle / atrophy + systemic / …
# [30] = systemic / hematology / anemia / anemia - hemolytic + systemic / in life observation / body weight / body weight gain + systemic / …
# [31] = systemic / hematology / anemia / anemia - nos + systemic / hematology / erythrocyte (rbc) count differential / erythrocyte (rbc) + systemic…
# [32] = systemic / clinical chemistry / globulins / globulins
# [33] = systemic / hematology / erythrocyte (rbc) count differential / erythrocyte (rbc) + systemic / hematology / hemoglobin (hgb) / hemoglobin (…
# [34] = group: offspring, systemic / in life observation / body weight / litter weight + developmental / offspring survival late / viability index / viability index
# [35] = group: parental, systemic / clinical chemistry / alanine aminotransferase (alt/sgpt) / alanine aminotransferase (alt/sgpt)
# [36] = group: parental, systemic / clinical chemistry / sorbitol dehydrogenase / sorbitol dehydrogenase + systemic / clinical chemistry / alanine aminotransferase (…
# [37] = systemic / hematology / platelet / platelet
# [38] = systemic / pathology microscopic / liver / fatty change + systemic / pathology microscopic / liver / necrosis + systemic / pathology …
# [39] = group: developmental, developmental / developmental malformation / bone / full supernumerary
# [40] = group: maternal, systemic / organ weight / liver / absolute + systemic / pathology microscopic / kidney / vacuolization + systemic / pathology microscopic / …
# [41] = systemic / clinical chemistry / calcium / calcium + systemic / clinical chemistry / phosphorus / phosphorus + systemic / pathology …
# [42] = systemic / pathology microscopic / kidney / hyaline droplet
# [43] = systemic / pathology microscopic / kidney / hyaline droplet + systemic / clinical chemistry / alanine aminotransferase (alt/sgpt) / alanine …
# [44] = systemic / clinical chemistry / protein / protein + systemic / in life observation / clinical signs / vomiting + systemic / organ weight / …
compound,measurement,setting,value
CC[C@H](C)[C@H]1O[C@]2(C=C[C@@H]1C)C[C@@H]1C[C@@H](C/C=C(\C)[C@@H](O[C@H]3C[C@H](OC)[C@@H](O[C@H]4C[C@H](OC)[C@@H](NC)[C@H](C)O4)[C@H](C)O3)[C@@H](C)/C=C/C=C3\CO[C@@H]4[C@H](O)C(C)=C[C@@H](C(=O)O1)[C@]34O)O2.O=C(O)c1ccccc1 [Emamectin benzoate],LEL,rat [1]; [19],1.8 mg/kg/day
same,LOAEL,rat [1]; [19],1.8 mg/kg/day
same,NEL,rat [1]; [19],0.6 mg/kg/day
same,NOAEL,rat [1]; [19],0.6 mg/kg/day
same,LOAEL,rat [1]; [20],1.8 mg/kg/day
same,NEL,rat [1]; [20],0.6 mg/kg/day
same,NOAEL,rat [1]; [20],0.6 mg/kg/day
same,LEL,"rat [1]; group: offspring, developmental / developmental malformation / limb / [other] + systemic / in life observation / clinical signs / tremors + systemic / in life…",1.8 mg/kg/day
same,LOAEL,"rat [1]; group: parental, systemic / pathology microscopic / brain / degeneration + systemic / pathology microscopic / spinal cord / degeneration",3.6 mg/kg/day
same,LEL,rat [1]; [21],3.6 mg/kg/day
same,NEL,rat [1]; [21],1.8 mg/kg/day
same,NOAEL,rat [1]; [21],1.8 mg/kg/day
same,LEL,rat [1]; [22],3.6 mg/kg/day
same,LOAEL,rat [1]; [22],3.6 mg/kg/day
same,NEL,rat [1]; [22],1.8 mg/kg/day
same,NOAEL,rat [1]; [22],1.8 mg/kg/day
same,LEL,rat [2]; [23],8 mg/kg/day
same,LOAEL,rat [2]; [23],8 mg/kg/day
same,NEL,rat [2]; [23],4 mg/kg/day
same,NOAEL,rat [2]; [23],4 mg/kg/day
same,LEL,rat [2]; [19],4 mg/kg/day
same,LOAEL,rat [2]; [19],4 mg/kg/day
same,NEL,rat [2]; [24],2 mg/kg/day
same,NOAEL,rat [2]; [24],2 mg/kg/day
same,NEL,rat [3]; systemic / in life observation / body weight / body weight + systemic / in life observation / clinical signs / fur (altered appearance) + …,1 mg/kg/day
same,LEL,rat [3]; [25],2.5 mg/kg/day
same,LOAEL,rat [3]; [25],2.5 mg/kg/day
same,NOAEL,rat [3]; [25],1 mg/kg/day
same,NEL,rat [4]; systemic / clinical chemistry / triglycerides / triglycerides + systemic / in life observation / body weight / body weight + systemic / …,0.25 mg/kg/day
same,LOAEL,rat [4]; [26],2.51 mg/kg/day
same,NOAEL,rat [4]; [26],1.01 mg/kg/day
same,LEL,rat [4]; systemic / pathology microscopic / skin / fibroma + systemic / pathology gross / skin / nodule(s) + systemic / clinical chemistry / …,1.01 mg/kg/day
same,LEL,dog [5],0.5 mg/kg/day
same,LOAEL,dog [5],0.5 mg/kg/day
same,NEL,dog [5],0.25 mg/kg/day
same,NOAEL,dog [5],0.25 mg/kg/day
same,LOAEL,rat [6]; [27],6.7 mg/kg/day
same,NOAEL,rat [6]; [27],2.5 mg/kg/day
same,LEL,rat [6]; systemic / pathology microscopic / eye / vacuolization,2.5 mg/kg/day
same,NEL,rat [6]; systemic / pathology microscopic / eye / vacuolization + systemic / in life observation / body weight / body weight + systemic / in life …,0.5 mg/kg/day
same,NEL,dog [7]; [28],0.25 mg/kg/day
same,NOAEL,dog [7]; [28],0.25 mg/kg/day
same,LEL,dog [7]; [29],0.5 mg/kg/day
same,LOAEL,dog [7]; [29],0.5 mg/kg/day
CC1(c2ccc(Oc3ccccc3)cc2)OC(=O)N(Nc2ccccc2)C1=O (stereo unspecified) [Famoxadone],LOAEL,rat [8]; systemic / hematology / anemia / anemia - hemolytic + systemic / in life observation / body weight / body weight gain,10.7 mg/kg/day
same,LEL,rat [8]; [30],10.7 mg/kg/day
same,NEL,rat [8]; [30],2.15 mg/kg/day
same,NOAEL,rat [8]; [30],2.15 mg/kg/day
same,LEL,dog [9],8.8 mg/kg/day
same,LOAEL,dog [9],8.8 mg/kg/day
same,NEL,dog [9],1.2 mg/kg/day
same,NOAEL,dog [9],1.2 mg/kg/day
same,LEL,dog [10]; [31],1.4 mg/kg/day
same,NEL,dog [10]; [31],< 1.4 mg/kg/day
same,LOAEL,"dog [10]; systemic / pathology microscopic / eye / cataract + systemic / pathology microscopic / eye / cataract, cortical",10 mg/kg/day
same,NOAEL,"dog [10]; systemic / pathology microscopic / eye / cataract + systemic / pathology microscopic / eye / cataract, cortical + systemic / clinical …",1.3 mg/kg/day
same,LEL,rat [11]; [32],3.34 mg/kg/day
same,NEL,rat [11]; [32],< 3.34 mg/kg/day
same,LOAEL,rat [11]; [33],13 mg/kg/day
same,NOAEL,rat [11]; [33],3.34 mg/kg/day
same,LOAEL,"rat [12]; group: offspring, systemic / in life observation / body weight / litter weight",53.3 mg/kg/day
same,LEL,rat [12]; [34],53.3 mg/kg/day
same,NEL,rat [12]; [34],14.2 mg/kg/day
same,NOAEL,rat [12]; [34],14.2 mg/kg/day
same,LEL,rat [12]; [35],1.45 mg/kg/day
same,NEL,rat [12]; [35],< 1.45 mg/kg/day
same,LOAEL,rat [12]; [36],44.7 mg/kg/day
same,NOAEL,rat [12]; [36],11.3 mg/kg/day
same,LEL,mouse [13]; [37],5.89 mg/kg/day
same,NEL,mouse [13]; [37],< 5.89 mg/kg/day
same,NOAEL,mouse [13]; systemic / organ weight / liver / absolute + systemic / organ weight / liver / relative to body weight + systemic / clinical chemistry / …,62.4 mg/kg/day
same,LOAEL,mouse [13]; systemic / organ weight / liver / absolute + systemic / organ weight / liver / relative to body weight + systemic / hematology / anemia / …,534 mg/kg/day
same,LEL,mouse [14]; systemic / organ weight / liver / absolute + systemic / organ weight / liver / relative to body weight,95.6 mg/kg/day
same,LOAEL,mouse [14]; [38],274 mg/kg/day
same,NEL,mouse [14]; [38],6.78 mg/kg/day
same,NOAEL,mouse [14]; [38],95.6 mg/kg/day
N#CCNC(=O)c1cnccc1C(F)(F)F [Flonicamid],LEL,rat [15]; [39],500 mg/kg/day
same,LOAEL,rat [15]; [39],500 mg/kg/day
same,NEL,rat [15]; [39],100 mg/kg/day
same,NOAEL,rat [15]; [39],100 mg/kg/day
same,LEL,rat [15]; [40],500 mg/kg/day
same,LOAEL,rat [15]; [40],500 mg/kg/day
same,NEL,rat [15]; [40],100 mg/kg/day
same,NOAEL,rat [15]; [40],100 mg/kg/day
same,LEL,rat [16]; [41],7.47 mg/kg/day
same,NEL,rat [16]; [41],3.61 mg/kg/day
same,NOAEL,rat [16]; [41],7.47 mg/kg/day
same,LOAEL,rat [16]; [42],36.5 mg/kg/day
same,LEL,rat [17]; [42],12.1 mg/kg/day
same,LOAEL,rat [17]; [42],60 mg/kg/day
same,NEL,rat [17]; [43],3.08 mg/kg/day
same,NOAEL,rat [17]; [43],12.1 mg/kg/day
same,LEL,dog [18]; [44],20 mg/kg/day
same,LOAEL,dog [18]; [44],20 mg/kg/day
same,NOAEL,dog [18]; [44],8 mg/kg/day
same,NEL,dog [18]; systemic / in life observation / clinical signs / ataxia + systemic / in life observation / clinical signs / defecation (diarrhea) + …,8 mg/kg/day
